row,melting point [°C],Compound
1,127 to 128,"Cc1cnc2c(-c3ccc(F)cc3)c(-c3ccncc3)[nH]c2c1 [Example 1, 3-(4-Fluoro-phenyl)-6-methyl-2-pyridin-4-yl-1H-pyrrolo[3,2-b]pyridine]"
2,208 to 209,"COCn1c(-c2ccncc2)c(-c2ccc(F)cc2)c2ncc(C)cc21 [Example 2, 3-(4-Fluoro-phenyl)-1-methoxymethyl-6-methyl-2-pyridin-4-yl-1H-pyrrolo[3,2-b]pyridine]"
3,169 to 170,"COCOn1c(-c2ccncc2)c(-c2ccc(F)cc2)c2ncccc21 [Example 5, 3-(4-Fluoro-phenyl)-1-methoxymethoxy-2-pyridin-4-yl-1H-pyrrolo[3,2-b]pyridine]"
4,237 to 238,"COC(=O)CC(=O)Nc1cc(-c2[nH]c3cc(C)cnc3c2-c2ccc(F)cc2)ccn1 [Example 8, N-{4-[3-(4-Fluoro-phenyl)-6-methyl-1H-pyrrolo[3,2-b]pyridin-2-yl]-pyridin-2-yl}-malonamic acid methyl ester]"
5,255 to 256,"FCCn1c(-c2ccnc(Nc3cccc(F)c3)c2)c(-c2ccc(F)cc2)c2ncccc21 [Example 9, {4-[1-(2-Fluoro-ethyl)-3-(4-fluoro-phenyl)-1H-pyrrolo[3,2-b]pyridin-2-yl]-pyridin-2-yl}-(3-fluoro-phenyl)-amine]"
6,157 to 158,"NC(=O)c1cc(-c2[nH]c3cccnc3c2-c2ccc(F)cc2)ccn1 [Example 10, 4-[3-(4-Fluoro-phenyl)-1H-pyrrolo[3,2-b]pyridin-2-yl]-pyridine-2-carboxylic acid amide]"
7,169 to 170,"Fc1ccc(-c2c(-c3ccncn3)[nH]c3cccnc23)cc1 [Example 11, 3-(4-Fluoro-phenyl)-2-pyrimidin-4-yl-1H-pyrrolo[3,2-b]pyridine]"
8,151 to 152,"COCC(C)Nc1nccc(-c2c(-c3ccc(F)cc3)c3ncccc3n2COC)n1 (centres unmarked) [Example 12, {4-[3-(4-Fluoro-phenyl)-1-methoxymethyl-1H-pyrrolo[3,2-b]pyridin-2-yl]-pyrimidin-2-yl}-(2-methoxy-1-methyl-ethyl)-amine]"

# From patent US8084395B2, “4-aza indole derivatives and their use as fungicides” (Syngenta Crop Protection, Inc., priority 2007, dated 2011)
